From ChEMBL document CHEMBL1201862, “PubChem BioAssay data set” (2004)
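96-well plates; 48 h exposure; 5 concentrations. Endpoints by linear interpolation between flanking doses. Not reached: highest tested concentration assigned. GI50 = concentration required for 50% inhibition of growth.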 Active and inactive are the calls of the source. Rule as the data show it: active = GI50 up to about 1.1 µM and inactive = higher.

Legend:
Test in all cases: NCI-60 cell line screen, 48 h
NCI/ADR-RES = system: NCI/ADR-RES
NCI-H522 = system: NCI-H522
HCC 2998 = system: HCC 2998
NCI-H23 = system: NCI-H23
OVCAR-3 = system: OVCAR-3
HCT-116 = system: HCT-116
HOP-92 = system: HOP-92
RXF 393 = system: RXF 393
IGROV-1 = system: IGROV-1
HL-60 = system: HL-60
CCRF-CEM = system: CCRF-CEM
UACC-62 = system: UACC-62
PC-3 = system: PC-3
Malme-3M = system: Malme-3M
T47D = system: T47D
UACC-257 = system: UACC-257
HOP-62 = system: HOP-62
OVCAR-4 = system: OVCAR-4
Hs-578T = system: Hs-578T
SF-268 = system: SF-268
ACHN = system: ACHN
TK-10 = system: TK-10
M14 = system: M14
A549 = system: A549
SF-295 = system: SF-295
MDA-MB-435 = system: MDA-MB-435
786-0 = system: 786-0
EKVX = system: EKVX
SNB-19 = system: SNB-19
KM12 = system: KM12
NCI-H460 = system: NCI-H460
OVCAR-5 = system: OVCAR-5
RPMI-8226 = system: RPMI-8226
MCF7 = system: MCF7
SN12C = system: SN12C
NCI-H226 = system: NCI-H226
SK-MEL-5 = system: SK-MEL-5
UO-31 = system: UO-31
CAKI-1 = system: CAKI-1
MDA-N = system: MDA-N
SW-620 = system: SW-620
SR = system: SR
SK-OV-3 = system: SK-OV-3
K562 = system: K562
SNB-75 = system: SNB-75
A498 = system: A498
HT-29 = system: HT-29
MOLT-4 = system: MOLT-4
SF-539 = system: SF-539
HCT-15 = system: HCT-15
U-251 = system: U-251
LOX IMVI = system: LOX IMVI
OVCAR-8 = system: OVCAR-8
DU-145 = system: DU-145
SK-MEL-2 = system: SK-MEL-2
COLO 205 = system: COLO 205
SK-MEL-28 = system: SK-MEL-28
MDA-MB-231 = system: MDA-MB-231

COc1ccc(/C=C\c2cc(OC)c(OC)c(OC)c2)cc1OP(=O)(O)O
GI50 (NCI/ADR-RES): 0.000137 µM (active)

Cc1nc2cccc([N+](=O)[O-])c2c(NCCCN(C)C)c1C
GI50 (NCI-H522): 15.2 µM (inactive)
GI50 (HCC 2998): 21.8 µM (inactive)
GI50 (NCI-H23): 28.1 µM (inactive)
GI50 (OVCAR-3): 26.6 µM (inactive)
GI50 (HCT-116): 20.9 µM (inactive)
GI50 (HOP-92): > 100 µM (inactive)
GI50 (RXF 393): 16.1 µM (inactive)
GI50 (IGROV-1): > 100 µM (inactive)
GI50 (HL-60): 11 µM (inactive)
GI50 (CCRF-CEM): 21.3 µM (inactive)
GI50 (UACC-62): > 100 µM (inactive)
GI50 (PC-3): 17.8 µM (inactive)
GI50 (Malme-3M): 22.2 µM (inactive)
GI50 (T47D): > 100 µM (inactive)
GI50 (UACC-257): 23 µM (inactive)
GI50 (HOP-62): 28.9 µM (inactive)
GI50 (OVCAR-4): 17.3 µM (inactive)
GI50 (Hs-578T): > 61.1 µM (inactive)
GI50 (SF-268): > 77.3 µM (inactive)
GI50 (ACHN): 97.3 µM (inactive)
GI50 (TK-10): > 40.9 µM (inactive)
GI50 (M14): 35.5 µM (inactive)
GI50 (A549): 60.4 µM (inactive)
GI50 (SF-295): 36.6 µM (inactive)
GI50 (MDA-MB-435): 71.4 µM (inactive)
GI50 (786-0): > 61.5 µM (inactive)
GI50 (EKVX): > 31.6 µM (inactive)
GI50 (SNB-19): > 100 µM (inactive)
GI50 (KM12): 34.6 µM (inactive)
GI50 (NCI-H460): 24 µM (inactive)
GI50 (OVCAR-5): 27 µM (inactive)
GI50 (RPMI-8226): 34.8 µM (inactive)
GI50 (MCF7): 23 µM (inactive)
GI50 (SN12C): 11.5 µM (inactive)
GI50 (NCI-H226): > 50.6 µM (inactive)
GI50 (SK-MEL-5): 35.6 µM (inactive)
GI50 (UO-31): > 100 µM (inactive)
GI50 (CAKI-1): 32.9 µM (inactive)
GI50 (MDA-N): 26.7 µM (inactive)
GI50 (SW-620): 29.4 µM (inactive)
GI50 (SR): > 34.5 µM (inactive)
GI50 (SK-OV-3): > 100 µM (inactive)
GI50 (K562): 31.7 µM (inactive)
GI50 (SNB-75): 49.7 µM (inactive)
GI50 (A498): 34.8 µM (inactive)
GI50 (HT-29): 19.9 µM (inactive)
GI50 (NCI/ADR-RES): > 100 µM (inactive)
GI50 (MOLT-4): 20.5 µM (inactive)
GI50 (SF-539): 45.4 µM (inactive)
GI50 (HCT-15): 26.5 µM
GI50 (U-251): > 79.8 µM (inactive)
GI50 (LOX IMVI): 84.9 µM (inactive)
GI50 (OVCAR-8): 36.1 µM (inactive)
GI50 (DU-145): 78.2 µM (inactive)
GI50 (SK-MEL-2): > 51.3 µM (inactive)
GI50 (COLO 205): 22.3 µM (inactive)
GI50 (SK-MEL-28): > 100 µM (inactive)

COc1cc(CNc2nc3ccccc3n2Cc2ccccc2)cc(CN2CCOCC2)c1O
GI50 (NCI-H522): 32.4 µM (inactive)
GI50 (HCC 2998): 33.9 µM (inactive)
GI50 (NCI-H23): 60.7 µM (inactive)
GI50 (OVCAR-3): 20.6 µM (inactive)
GI50 (HCT-116): 21.2 µM (inactive)
GI50 (HOP-92): 12.1 µM (inactive)
GI50 (RXF 393): 18.2 µM (inactive)
GI50 (IGROV-1): 52 µM (inactive)
GI50 (CCRF-CEM): 28.3 µM (inactive)
GI50 (UACC-62): 22.9 µM (inactive)
GI50 (PC-3): 29.4 µM (inactive)
GI50 (Malme-3M): 19.1 µM (inactive)
GI50 (T47D): > 100 µM (inactive)
GI50 (UACC-257): 20.1 µM (inactive)
GI50 (HOP-62): 28.6 µM (inactive)
GI50 (OVCAR-4): 61.4 µM (inactive)
GI50 (Hs-578T): 29.9 µM (inactive)
GI50 (SF-268): 59.8 µM (inactive)
GI50 (ACHN): 39.6 µM (inactive)
GI50 (TK-10): 23.9 µM (inactive)
GI50 (M14): 24.7 µM (inactive)
GI50 (A549): 47.5 µM (inactive)
GI50 (SF-295): 19.3 µM (inactive)
GI50 (MDA-MB-435): 22.5 µM (inactive)
GI50 (786-0): 16.7 µM (inactive)
GI50 (EKVX): 53.3 µM (inactive)
GI50 (SNB-19): 61.8 µM (inactive)
GI50 (KM12): 34.8 µM (inactive)
GI50 (NCI-H460): 50.9 µM (inactive)
GI50 (OVCAR-5): 26.5 µM (inactive)
GI50 (RPMI-8226): 91 µM (inactive)
GI50 (MCF7): 31.7 µM (inactive)
GI50 (SN12C): 44.2 µM (inactive)
GI50 (NCI-H226): 30.8 µM (inactive)
GI50 (SK-MEL-5): 18.6 µM (inactive)
GI50 (UO-31): 18.2 µM (inactive)
GI50 (CAKI-1): 26.2 µM (inactive)
GI50 (MDA-MB-231): 18.7 µM (inactive)
GI50 (MDA-N): 27.4 µM (inactive)
GI50 (SW-620): 45.6 µM (inactive)
GI50 (SK-OV-3): 96.8 µM (inactive)
GI50 (K562): 21.5 µM (inactive)
GI50 (SNB-75): 27.9 µM (inactive)
GI50 (A498): 21.1 µM (inactive)
GI50 (HT-29): 23.3 µM (inactive)
GI50 (NCI/ADR-RES): 23 µM (inactive)
GI50 (MOLT-4): 53.8 µM (inactive)
GI50 (SF-539): 20 µM (inactive)
GI50 (HCT-15): 29.6 µM
GI50 (U-251): 31.2 µM (inactive)
GI50 (LOX IMVI): 15.5 µM (inactive)
GI50 (OVCAR-8): 32.1 µM (inactive)
GI50 (DU-145): 80.9 µM (inactive)
GI50 (SK-MEL-2): 22.4 µM (inactive)
GI50 (COLO 205): 20.9 µM (inactive)
GI50 (SK-MEL-28): 18.4 µM (inactive)

CC(C)(Oc1ccc(C(=O)c2ccc(Cl)cc2)cc1Cl)C(=O)N1CCN(CCO)CC1
GI50 (HCC 2998): > 10 µM (inactive)
GI50 (NCI-H23): 4.24 µM (inactive)
GI50 (RXF 393): 6.27 µM (inactive)
GI50 (IGROV-1): > 10 µM (inactive)
GI50 (HL-60): 3.53 µM (inactive)
GI50 (CCRF-CEM): > 10 µM (inactive)
GI50 (UACC-62): > 10 µM (inactive)
GI50 (PC-3): 3.93 µM (inactive)
GI50 (Malme-3M): 9.42 µM (inactive)
GI50 (T47D): 5.85 µM (inactive)
GI50 (UACC-257): 3.39 µM (inactive)
GI50 (HOP-62): > 10 µM (inactive)
GI50 (TK-10): > 10 µM (inactive)
GI50 (M14): > 10 µM (inactive)
GI50 (A549): > 10 µM (inactive)
GI50 (SF-295): 8.59 µM (inactive)
GI50 (786-0): > 10 µM (inactive)
GI50 (EKVX): > 10 µM (inactive)
GI50 (KM12): > 10 µM (inactive)
GI50 (RPMI-8226): 4.51 µM (inactive)
GI50 (MCF7): 5.12 µM (inactive)
GI50 (SN12C): > 10 µM (inactive)
GI50 (SK-MEL-5): 3.91 µM (inactive)
GI50 (CAKI-1): > 10 µM (inactive)
GI50 (MDA-MB-231): > 10 µM (inactive)
GI50 (MDA-N): > 10 µM (inactive)
GI50 (SW-620): > 10 µM (inactive)
GI50 (SR): 2.96 µM (inactive)
GI50 (SK-OV-3): > 10 µM (inactive)
GI50 (K562): 2.85 µM (inactive)
GI50 (SNB-75): > 10 µM (inactive)
GI50 (HT-29): > 10 µM (inactive)
GI50 (MOLT-4): 4.4 µM (inactive)
GI50 (HCT-15): > 10 µM
GI50 (LOX IMVI): > 10 µM (inactive)
GI50 (OVCAR-8): > 10 µM (inactive)
GI50 (DU-145): 7.05 µM (inactive)
GI50 (COLO 205): > 10 µM (inactive)
GI50 (SK-MEL-28): > 10 µM (inactive)
